ChEMBL document CHEMBL1124023, “Analgesic dipeptide derivatives. 4. Linear and cyclic analogues of the analgesic compounds arginyl-2-[(o-nitrophenyl)sulfenyl]tryptophan and lysyl-2-[(o-nitrophenyl)sulfenyl]tryptophan” (1988)

Key:
Format in all cases: functional
Mus musculus [1] = assay: Analgesic activity (0.5 ug icv) tested after 30min, in mice tail-flick test
Mus musculus [2] = assay: Analgesic activity (0.5 ug icv) tested after 5min, in mice tail-flick test
Mus musculus [3] = assay: Analgesic activity (0.5 ug icv) tested after 60min, in mice tail-flick test
Mus musculus [4] = assay: Analgesic activity (5 ug icv) tested after 30min, in mice tail-flick test
Mus musculus [5] = assay: Analgesic activity (5 ug icv) tested after 5min, in mice tail-flick test
Mus musculus [6] = assay: Analgesic activity (5 ug icv) tested after 60min, in mice tail-flick test
Mus musculus [7] = assay: Analgesic activity (0.5 ug icv) tested after 5 min in mice tail-flick test
Mus musculus [8] = assay: Analgesic activity (2.5 ug icv) tested after 30min, in mice tail-flick test
Mus musculus [9] = assay: Analgesic activity (2.5 ug icv) tested after 5min, in mice tail-flick test
Mus musculus [10] = assay: Analgesic activity (2.5 ug icv) tested after 60min, in mice tail-flick test
Mus musculus [11] = assay: Analgesic activity (12.5 ug icv) tested after 30min, in mice tail-flick test
Mus musculus [12] = assay: Analgesic activity (12.5 ug icv) tested after 5min, in mice tail-flick test
Mus musculus [13] = assay: Analgesic activity (12.5 ug icv) tested after 60min, in mice tail-flick test
Mus musculus [14] = assay: Analgesic activity (25 ug icv) tested after 30min, in mice tail-flick test
Mus musculus [15] = assay: Analgesic activity (25 ug icv) tested after 5min, in mice tail-flick test
Mus musculus [16] = assay: Analgesic activity (25 ug icv) tested after 60min, in mice tail-flick test
Mus musculus [17] = assay: Analgesic activity (0.5 ug icv) tested after 30 min in mice tail-flick test
Mus musculus [18] = assay: Analgesic activity (0.5 ug icv) tested after 60 min in mice tail-flick test
Mus musculus [19] = assay: Analgesic activity (6.25 ug icv) tested after 30min, in mice tail-flick test
Mus musculus [20] = assay: Analgesic activity (6.25 ug icv) tested after 5min, in mice tail-flick test
Mus musculus [21] = assay: Analgesic activity (1 ug icv) tested after 30min, in mice tail-flick test
Mus musculus [22] = assay: Analgesic activity (1 ug icv) tested after 5min, in mice tail-flick test
Mus musculus [23] = assay: Analgesic activity (1 ug icv) tested after 60min, in mice tail-flick test
Mus musculus [24] = assay: Analgesic activity (3.125 ug icv) tested after 60min, in mice tail-flick test
Mus musculus [25] = assay: Analgesic activity (6.25 ug icv) tested after 60min, in mice tail-flick test
Mus musculus [26] = assay: Analgesic activity (3.125 ug icv) tested after 30min, in mice tail-flick test
Mus musculus [27] = assay: Analgesic activity (3.125 ug icv) tested after 5min, in mice tail-flick test

Row | SMILES | Change in reaction time (Mus musculus [1]) | Change in reaction time (Mus musculus [2]) | Change in reaction time (Mus musculus [3]) | Change in reaction time (Mus musculus [8]) | Change in reaction time (Mus musculus [9]) | Change in reaction time (Mus musculus [10]) | other results
1 | COC(=O)[C@H](CCCCN)NC(=O)[C@@H](N)Cc1cn(Sc2ccccc2[N+](=O)[O-])c2ccccc12 | 76% | 138% | 33% |  |  |  | 
2 | Cl.N=C(N)NCCCC1NC(=O)[C@H](Cc2cn(Sc3ccccc3[N+](=O)[O-])c3ccccc23)NC1=O (stereo in doubt) | 23% | 35% | 15% |  |  |  | 
3 | COC(=O)[C@H](Cc1cn(Sc2ccccc2[N+](=O)[O-])c2ccccc12)NC(=O)[C@@H](N)CCCN=C(N)N | 52% | 120% | 22% |  |  |  | 
4 | COC(=O)[C@H](Cc1cn(Sc2ccccc2[N+](=O)[O-])c2ccccc12)NC(=O)[C@@H](N)CCCCN | 50% | 98% | 20% |  |  |  | 
5 | COC(=O)[C@@H](CCCN=C(N)N)NC(=O)[C@@H](N)Cc1cn(Sc2ccccc2[N+](=O)[O-])c2ccccc12.Cl | 23% |  | 9% | 18% | 20% | 9% | Change in reaction time (Mus musculus [4]): 88%; Change in reaction time (Mus musculus [5]): 97%; Change in reaction time (Mus musculus [6]): 30%; Change in reaction time (Mus musculus [7]): 18%
6 | NC(N)=NCCC[C@H](NC(=O)[C@@H](N)Cc1ccc(O)cc1)C(=O)O [KYOTORPHIN] |  |  |  |  |  |  | Change in reaction time (Mus musculus [11]): 1%; Change in reaction time (Mus musculus [12]): 18%; Change in reaction time (Mus musculus [13]): 6%; Change in reaction time (Mus musculus [14]): 31%; Change in reaction time (Mus musculus [15]): 98%; Change in reaction time (Mus musculus [16]): 10%
7 | COC(=O)[C@H](CCCN=C(N)N)NC(=O)[C@@H](N)Cc1cn(Sc2ccccc2[N+](=O)[O-])c2ccccc12.Cl |  |  |  |  |  |  | Change in reaction time (Mus musculus [17]): 63%; Change in reaction time (Mus musculus [7]): 113%; Change in reaction time (Mus musculus [18]): 20%
8 | COC(=O)[C@@H](CCCN=C(N)N)NC(=O)[C@H](N)Cc1cn(Sc2ccccc2[N+](=O)[O-])c2ccccc12.Cl | 10% | 6% | -2% | 3% | 16% | -2% | Change in reaction time (Mus musculus [4]): 42%; Change in reaction time (Mus musculus [5]): 34%; Change in reaction time (Mus musculus [6]): 29%
9 | NC(N)=NCCC[C@@H](NC(=O)[C@H](N)Cc1ccc(O)cc1)C(=O)O |  |  |  |  |  |  | Change in reaction time (Mus musculus [19]): 68%; Change in reaction time (Mus musculus [20]): 102%; Change in reaction time (Mus musculus [21]): 5%; Change in reaction time (Mus musculus [22]): 10%; Change in reaction time (Mus musculus [23]): -2%; Change in reaction time (Mus musculus [24]): 15%; Change in reaction time (Mus musculus [25]): 10%; Change in reaction time (Mus musculus [26]): 34%; Change in reaction time (Mus musculus [27]): 79%
10 | COC(=O)[C@H](CCCN=C(N)N)NC(=O)[C@H](N)Cc1cn(Sc2ccccc2[N+](=O)[O-])c2ccccc12.Cl | 26% | 30% | 23% | 41% | 125% | 20% | 
